Molecules are shown by their SMILES.

This test concerns T.b. brucei (strain 427) bloodstream form parasites. The test is described as follows: T.b. brucei single concentration screen (10 μM). Conditions: Trypanosoma brucei, read-out: T.b.brucei % viability (10 µM).

Usually viability stands for a read-out of living cells in per cent, often relative to untreated cells. On to `Cc1cccc(C(=O)Nc2ccnc(N(C)C3CCN(CC(C)C)CC3)c2)c1` [MMV024829, CC(C)CN1CCC(CC1)N(C)c2cc(NC(=O)c3cccc(C)c3)ccn2], for which the viability at 10 µM was determined as 56%. For `Cc1ccc(-c2nc(CN(Cc3ccccn3)C(C)C)cs2)o1` [MMV1088520, CC(C)N(Cc1ccccn1)Cc2csc(n2)c3oc(C)cc3], the viability at 10 µM came to 72%. With `NCC(c1cccs1)S(=O)(=O)c1ccccc1` (centres unmarked) [MMV688557, NCC(c1cccs1)S(=O)(=O)c2ccccc2], the viability at 10 µM is 99%. Under `CCCNC(=O)N1CCC2(CC1)CC(=O)c1cc(C)ccc1O2` [MMV085230, CCCNC(=O)N1CCC2(CC1)CC(=O)c3cc(C)ccc3O2] stands 103%; under `O=C1[C@@H](Oc2ccccc2)[C@@H](c2ccc(Cl)cc2)N1CCn1cnc2c(NCc3ccccc3)ncnc21` [MMV688352, Clc1ccc(cc1)[C@@H]2[C@H](Oc3ccccc3)C(=O)N2CCn4cnc5c(NCc6ccccc6)ncnc45], 107%. Turning to `CC(Oc1cccc(Cl)c1)C(=O)Nc1ccc2oc(-c3ccncc3)nc2c1` (centres unmarked) [MMV688472, CC(Oc1cccc(Cl)c1)C(=O)Nc1ccc2oc(nc2c1)-c1ccncc1], the viability at 10 µM came out at 71%. Under `Cc1cc(Nc2ccc(C(F)(F)F)cc2)n2ccnc2n1` [MMV011229, CC1=NC2=NC=CN2C(NC3=CC=C(C(F)(F)F)C=C3)=C1] stands 89%. Consider `COc1cccc(-n2nnnc2S(C)(=O)=O)c1` [Compound 63, COc1cccc(c1)n2nnnc2S(=O)(=O)C], for which the viability at 10 µM was found to be 103%. Consider `COc1ccc(-c2cc(NC(=O)c3ccc(F)cc3Cl)ccc2OC)cc1` [MMV676526, COc1ccc(cc1)c2cc(NC(=O)c3ccc(F)cc3Cl)ccc2OC], for which the viability at 10 µM amounted to 93%. Consider `Clc1cccc(CO[C@H]2CCc3ccccc3[C@@H]2n2ccnn2)c1` [MMV676159, Clc1cccc(CO[C@H]2CCc3ccccc3[C@@H]2n4ccnn4)c1], for which the viability at 10 µM was 96%. To `Clc1ccc(CCNc2cc(-c3ccccc3)nc3ncnn23)cc1` [MMV688889, Clc1ccc(CCNc2cc(nc3ncnn23)c4ccccc4)cc1] belongs 74%. In the case of `O=C(Nc1nnc(-c2ccc(Cl)s2)o1)c1ccc(Cl)s1` [MMV676501, Clc1ccc(s1)C(=O)Nc2oc(nn2)c3ccc(Cl)s3], the viability at 10 µM stood at 93%. To `COc1cc(C2=NCCN2)ccc1-c1cn(-c2cccc(C3=NCCN3)c2)nn1` [MMV688407, COc1cc(ccc1c2cn(nn2)c3cccc(c3)C4=NCCN4)C5=NCCN5] belongs 87%. `Nc1c2c(nc3sc4c(c13)CCCC4)CCCC2` [MMV676588, Nc1c2CCCCc2nc3sc4CCCCc4c13]: the viability at 10 µM amounted to 99%.

As for `CCOc1ccccc1NC(C)C(=O)Nc1cc(C(F)(F)F)ccc1N1CCOCC1` (centres unmarked) [MMV407834, CCOc1ccccc1NC(C)C(=O)Nc2cc(ccc2N3CCOCC3)C(F)(F)F], the viability at 10 µM came out at 104%. For `Cc1cc(NCC(C)C)c2n[nH]c(-c3ccccc3)c2n1` [MMV021375, CC(C)CNc1cc(nc2c([nH]nc12)-c1ccccc1)C], the viability at 10 µM is 64%. Under `Cc1nn(C(=O)Nc2cccc(C(F)(F)F)c2)c(C)c1Sc1ncccn1` [MMV688552, CC(C(SC1=NC=CC=N1)=C2C)=NN2C(NC3=CC=CC(C(F)(F)F)=C3)=O] stands 96%.

Regarding `COc1ccc(Nc2ccccc2NC(=O)c2ccc(O)nc2)cc1` [MMV676554, COc1ccc(Nc2ccccc2NC(=O)c3ccc(O)nc3)cc1], the viability at 10 µM came out at 115%. As to `Cc1ccc(-c2cc(C(=O)Nc3cccnc3)c3cc(Br)ccc3n2)cc1` [MMV016838, Cc1ccc(cc1)-c1cc(c2cc(ccc2n1)Br)C(=O)Nc1cccnc1], the viability at 10 µM turned out to be 87%.

Turning to `CC(C)C(Oc1cccc2ccccc12)C(=O)O` (centres unmarked) [MMV676191, CC(C)C(Oc1cccc2ccccc12)C(=O)O], the viability at 10 µM is 103%. Under `CNc1snc(C)c1C(=O)NCCOc1ccc(OC)cc1` [MMV688554, CNc1snc(C)c1C(=O)NCCOc2ccc(OC)cc2] stands 92%; under `Cc1cc(C)cc(COc2ccc3c(C)c(CCC(=O)O)c(=O)oc3c2C)c1` [MMV676476, CC1=C(CCC(=O)O)C(=O)Oc2c(C)c(OCc3cc(C)cc(C)c3)ccc12], 94%; under `FC(F)(F)c1nnc2ccc(Cl)nn12` [MMV069458, FC(F)(F)c1nnc2ccc(Cl)nn12], 100%. Regarding `CN1CCC(c2cc(-c3ccncc3)c(-c3ccc(F)cc3)[nH]2)CC1` [MMV688703, CN1CCC(CC1)c1cc(c([nH]1)-c1ccc(F)cc1)-c1ccncc1], the viability at 10 µM stood at 68%.

With `Clc1ccc(CN2CCN(C3=NCCN3)CC2)cc1Cl` [MMV689060, Clc1ccc(CN2CCN(CC2)C3=NCCN3)cc1Cl], the viability at 10 µM was found to be 101%. With `O=C(c1[nH]nc2c1CCCC2)N1CCN(Cc2ccc3c(c2)OCO3)CC1` [MMV676389, O=C(N1CCN(Cc2ccc3OCOc3c2)CC1)c4[nH]nc5CCCCc45], the viability at 10 µM stood at 95%. Under `O=C(NC1CC1)c1ccc(N2CCOc3ccc(Cl)cc32)s1` [MMV020537, Clc1ccc2OCCN(c3ccc(s3)C(=O)NC4CC4)c2c1] stands 97%; under `Nc1ccc(C(=O)Nc2ccc(-c3nc4ccccc4o3)cc2)cc1` [MMV007920, Nc1ccc(cc1)C(=O)Nc2ccc(cc2)c3oc4ccccc4n3], 83%. Under `COc1ccc(-c2cnc3cnc(-c4cccc(OC(C)C)c4)cn23)cc1` [MMV688270, COc1ccc(cc1)-c1cnc2cnc(cn12)-c1cccc(OC(C)C)c1] stands 99%; under `COc1ccc(C2CC(c3cccs3)=NN2C(=O)c2ccco2)cc1OC` (centres unmarked) [MMV019234, COc1ccc(cc1OC)C2CC(=NN2C(=O)c3occc3)c4cccs4], 107%. Under `CC1=Nc2ccc(Cl)cc2C(c2ccccc2)N1CCNC(=O)CN(C)C` (centres unmarked) [MMV688410, CN(C)CC(=O)NCCN1C(c2ccccc2)c3cc(Cl)ccc3N=C1C] stands 77%; under `FC(F)(F)c1ccc(N(c2cccnc2)C2CCN(c3ccc(C(F)(F)F)cn3)CC2)cc1` [MMV689243, FC(F)(F)c1ccc(cc1)N(C2CCN(CC2)c3ccc(cn3)C(F)(F)F)c4cccnc4], 103%; under `Cc1noc(C)c1C(=O)N1CCCC(c2[nH]c3c(C)cccc3c2-c2ccncc2)C1` (centres unmarked) [MMV020623, Cc1onc(C)c1C(=O)N2CCCC(C2)c3[nH]c4c(C)cccc4c3c5ccncc5], 78%.

As to `Clc1cccc(C(c2ccc(CN3CCNCC3)cc2)n2ccnc2)c1` (centres unmarked) [MMV663250, Clc1cccc(c1)C(c2ccc(CN3CCNCC3)cc2)n4ccnc4], the viability at 10 µM was 75%. Under `O=C(Nc1ccnc(-c2cccnc2)n1)c1cc(C(F)(F)F)cc(C(F)(F)F)c1` [MMV019838, FC(F)(F)c1cc(cc(c1)C(F)(F)F)C(=O)Nc2ccnc(n2)c3cccnc3] stands 106%; under `c1ccc(-c2[nH]c3ccccc3c2C(c2ccccn2)N2CCCC2)cc1` (centres unmarked) [MMV688762, C1CCN(C1)C(c2ccccn2)c3c([nH]c4ccccc34)c5ccccc5], 108%; under `O=C([C@@H](c1ccc(Cl)cc1)c1cccnc1)N1CCN(c2ccc(C(F)(F)F)cc2)CC1` [MMV689244, FC(F)(F)c1ccc(cc1)N2CCN(CC2)C(=O)[C@@H](c3ccc(Cl)cc3)c4cccnc4], 108%. Under `Cn1c(=O)c2c(S(C)(=O)=O)snc2n(C)c1=O` [MMV687251, CN1C(=O)N(C)c2nsc(c2C1=O)S(=O)(=O)C] stands 98%; under `CC(C)(C)c1cc(C(=O)Nc2cccnc2)cc(C(=O)Nc2cccnc2)c1` [MMV020982, CC(C)(C)c1cc(cc(c1)C(=O)Nc2cccnc2)C(=O)Nc3cccnc3], 83%; under `COC(=O)c1c(NC(=O)c2cc3ccccc3oc2=O)sc2c1CCN(Cc1ccccc1)C2` [MMV676480, COC(=O)c1c2CCN(Cc3ccccc3)Cc2sc1NC(=O)C4=Cc5ccccc5OC4=O], 101%. Under `O=C(NC1CC1)c1ccc(N2CCC(Cc3ccccc3)CC2)nc1` [MMV024397, O=C(NC1CC1)c2ccc(nc2)N3CCC(Cc4ccccc4)CC3] stands 72%; under `CCOc1ccc(-c2nc(CNCCc3ccc(F)cc3)cs2)cc1` [MMV688938, CCOc1ccc(cc1)c2nc(CNCCc3ccc(F)cc3)cs2], 63%; under `CCC(NC(=O)c1ccccc1NC(=O)c1ccc(C)cc1)C(=O)OC` (centres unmarked) [MMV019551, CCC(NC(=O)c1ccccc1NC(=O)c2ccc(C)cc2)C(=O)OC], 97%.

With `O=C(Nc1cccnc1)c1c(O)c2cccc3c2n(c1=O)CC3` [MMV676395, OC1=C(C(=O)Nc2cccnc2)C(=O)N3CCc4cccc1c34], the viability at 10 µM was determined as 106%.

With `O=C(c1ccc(NCCO)cc1)C1C[C@H]1c1ccc(Cl)cc1` (some centres unmarked) [MMV676877, OCCNc1ccc(cc1)C(=O)C2C[C@H]2c3ccc(Cl)cc3], the viability at 10 µM was 102%.

Turning to `COc1ccccc1OCCCCn1c(C2CC2)nc2ccccc21` [MMV676474, COc1ccccc1OCCCCn2c(nc3ccccc23)C4CC4], the viability at 10 µM amounted to 93%. For `CC1CCCN(C(=O)C(C)Nc2cc(Cl)ccc2N2CCOCC2)C1` (centres unmarked) [MMV020388, CC(Nc1cc(Cl)ccc1N2CCOCC2)C(=O)N3CCCC(C)C3], the viability at 10 µM stood at 95%. Under `Cc1cc(C)nc(-n2nc(C)cc2Nc2ccccc2)n1` [MMV062221, Cc1cc(C)nc(n1)n2nc(C)cc2Nc3ccccc3] stands 103%. To `O=C(c1cc2ccccc2o1)N1CCN(Cc2ccc3c(c2)OCO3)CC1` [MMV676520, O=C(N1CCN(Cc2ccc3OCOc3c2)CC1)c4oc5ccccc5c4] belongs 97%; to `CO/N=C(\C(=O)OC)c1ccccc1CO/N=C(\C)c1cccc(C(F)(F)F)c1` [MMV688754, CO\N=C(/C(=O)OC)\c1ccccc1CO\N=C(/C)\c2cccc(c2)C(F)(F)F], 100%. With `Cc1ccc2nc(C)c(-c3ccn(Cc4ccccc4)n3)n2c1` [MMV688939, Cc1ccc2nc(C)c(c3ccn(Cc4ccccc4)n3)n2c1], the viability at 10 µM is 101%. Take `FC(F)(F)c1cccc(-c2nc3c(NCc4ccncc4)nccc3[nH]2)c1` [MMV032967, FC(F)(F)c1cccc(c1)c2nc3c(NCc4ccncc4)nccc3[nH]2]: the viability at 10 µM was determined as 79%.

With `CCCn1nnc(NC(=O)COc2ccc(C3CCCCC3)cc2)n1` [MMV676597, CCCn1nnc(NC(=O)COc2ccc(cc2)C3CCCCC3)n1], the viability at 10 µM came out at 71%.

For the origin of these results see article PMC6301270 (MedChemComm, 2018).
